Data reported in patent US8492384B2 (Korea Institute of Science and Technology, priority 2008, dated 2013).

How the values were obtained:
Type in all cases: cell-based
[1] = molecular target: T1, α1G T-type calcium channels (Homo sapiens, UniProt O43497); experiment: T-type calcium channel activity using the FDSS6000 (HTS, Fluo-3/AM, KCl-induced intracellular calcium change); settings: percent inhibition at 10 μM, HEK293 cells stably expressing α1G T-type calcium channels and Kir2.1, KCl 75 mM activation; for inhibition at 10 µM: read-out: FDSS (%, 10 μM)
T1 construct: host or cells: HEK293
Method: (§1) The novel compounds of the present invention presented as the formula 1 were tested for their antagonistic activities against T-type calcium channels using the methods described below. More specifically, the synthesized compounds were screened as follows: First, as a primary screening, the compounds having 40% or higher of antagonistic activities against T-type calcium channels were selected using the FDSS6000, a high throughput screening (HTS) device. Then, as a secondary screening, the IC50 (effective inhibitory concentration) values were obtained using the electrophysiological methods.
1) Methods for the Measurements of T-Type Calcium Channel Activity Using the FDSS6000
12 to 24 hours prior to the FDSS-based HTS assay, HEK293 cells stably expressing both α1G T-type calcium channels and Kir2.1 channels (α1G cell line: KCTC 10519BP, KRIBB (Korea Research Institute of Bioscience and Biotechnology) (GENE BANK) were seeded onto the 96-well plate coated with poly-L-lysine (0.05 mg/mL) at a density of 4×10^4 cells/well using a cell distributor (Titertek, USA). On the following day, the cells attached onto the 96-well plate were washed three times with a HEPES-buffered solution (150 mM NaCl, 5 mM KCl, 1 mM MgCl2, 2 mM CaCl2, 10 mM HEPES, 10 mM glucose, and pH 7.4) using an automatic 96-well plate washer (BioTek, USA), and then labeled with a fluorescent calcium indicator dye, Fluo-3/AM (5 μM) and 0.001% Pluronic F-127 in a HEPES-buffered solution at room temperature for 1 hour and then washed again with a HEPES-buffered solution twice. 10 minutes prior to the FDSS6000 measurements, the cells was washed with a HEPES-buffered solution containing 10 mM CaCl2 once and the final volume was adjusted.
In addition to the 96-well plates with cells, the two drug plates were prepared: one containing KCl (final concentration of 75 mM) for the activation of T-type calcium channels, and the other containing testing compounds (blocking agents of T-type calcium channels). Since most cell-based HTS devices are provided with a liquid application system for drug injection but not with a liquid absorption system, the KCl solution and the blocking agents for screening were prepared at concentrations five times higher than the final concentrations in the 10 mM CaCl2 HEPES-buffered solution, and then diluted in the cell plate, and the activities were measured. The specific method of the FDSS6000 measurements is as follows: For the FDSS6000 measurements, after the 20-sec baseline recordings, cells were preincubated with drugs for 75 seconds and the change in intracellular calcium concentration induced by KCl was measured. The percent inhibition by a test compound was calculated as integrated values of 340/380 fluorescent ratio of untreated and drug-treated cells. The control drug was 10 μM of Mibefradil®.
In details, cells were selectively exposed to 340 nm and 380 nm light excited by 4 xenon lamps installed in FDSS6000 using a computer-controlled filter wheel. The emitter fluorescence light through a 515 nm long-pass filter was passed by a freezing digital CCD camera mounted on the device. Data were collected every 1.23 seconds, and an average value of 340/380 fluorescent ratio for each well was obtained using a digital fluorescent analyzer. Data acquisition and analysis were performed using a program provided by Hamamatsu Photonics.

[2] = molecular target: T1, α1G T-type calcium channels; experiment: T-type calcium channel activity using electrophysiological whole-cell patch-clamp technique; settings: HEK293 cells expressing α1G T-type calcium channels
Method: as §1
2) Methods for the Measurements of T-Type Calcium Channel Activity Using an Electrophysiological Whole-Cell Patch-Clamp Technique
HEK293 cells stably expressing T-type calcium channels were cultured in DMEM (Dulbecco's modified Eagle's medium) containing 10% (v/v) fetal bovine serum and 1% penicillin/streptomycin (v/v) in humidified 5% CO2 at 36.5° C. Cells expressing α1GT-type calcium channels were selected using G-418 (0.5 mg/mL) in the culture medium. The culture medium was replaced with a fresh one every 3-4 days, and cells were subcultured every week.
Cells were seeded onto the coverglass coated with poly-L-lysine (0.5 mg/mL) for the measurements of T-type calcium channel activity 2-7 days prior to the recordings. Whole-cell recordings of T-type calcium channel currents were performed using an EPC-9 patch clamp amplifier (HEKA, Germany). Whole-cell currents were recorded using micropipettes with resistance of 3-4 MΩ with the pipette (intracellular) solution containing (in mM): 130 KCl, 11 EGTA, 5 Mg-ATP, and 10 HEPES, pH to 7.4 and with the bath (extracellular) solution containing (in mM): 140 NaCl, 2 CaCl2, and 10 HEPES, pH to 7.4. The inward currents of T-type calcium channels were evoked by the test pulses of −30 mV for 50 ms at a holding potential of −100 mV every 10 seconds.
Each compound was dissolved in dimethylsulfoxide (DMSO) as 10 mM stock solutions and diluted in the bath solution to 10 μM (containing 0.1% DMSO). […] More specifically, each compound was perfused to the bath for about 30-60 seconds, and the inhibition of the inward peak currents by a test compound was calculated as a percent inhibition from which the IC50 values were determined.

[3] = molecular target: T1, α1G T-type calcium channels; experiment: as above; settings: percent inhibition of inward peak currents, HEK293 cells expressing α1G, head prints 100 μM

T1 sequence (O43497 whole entry): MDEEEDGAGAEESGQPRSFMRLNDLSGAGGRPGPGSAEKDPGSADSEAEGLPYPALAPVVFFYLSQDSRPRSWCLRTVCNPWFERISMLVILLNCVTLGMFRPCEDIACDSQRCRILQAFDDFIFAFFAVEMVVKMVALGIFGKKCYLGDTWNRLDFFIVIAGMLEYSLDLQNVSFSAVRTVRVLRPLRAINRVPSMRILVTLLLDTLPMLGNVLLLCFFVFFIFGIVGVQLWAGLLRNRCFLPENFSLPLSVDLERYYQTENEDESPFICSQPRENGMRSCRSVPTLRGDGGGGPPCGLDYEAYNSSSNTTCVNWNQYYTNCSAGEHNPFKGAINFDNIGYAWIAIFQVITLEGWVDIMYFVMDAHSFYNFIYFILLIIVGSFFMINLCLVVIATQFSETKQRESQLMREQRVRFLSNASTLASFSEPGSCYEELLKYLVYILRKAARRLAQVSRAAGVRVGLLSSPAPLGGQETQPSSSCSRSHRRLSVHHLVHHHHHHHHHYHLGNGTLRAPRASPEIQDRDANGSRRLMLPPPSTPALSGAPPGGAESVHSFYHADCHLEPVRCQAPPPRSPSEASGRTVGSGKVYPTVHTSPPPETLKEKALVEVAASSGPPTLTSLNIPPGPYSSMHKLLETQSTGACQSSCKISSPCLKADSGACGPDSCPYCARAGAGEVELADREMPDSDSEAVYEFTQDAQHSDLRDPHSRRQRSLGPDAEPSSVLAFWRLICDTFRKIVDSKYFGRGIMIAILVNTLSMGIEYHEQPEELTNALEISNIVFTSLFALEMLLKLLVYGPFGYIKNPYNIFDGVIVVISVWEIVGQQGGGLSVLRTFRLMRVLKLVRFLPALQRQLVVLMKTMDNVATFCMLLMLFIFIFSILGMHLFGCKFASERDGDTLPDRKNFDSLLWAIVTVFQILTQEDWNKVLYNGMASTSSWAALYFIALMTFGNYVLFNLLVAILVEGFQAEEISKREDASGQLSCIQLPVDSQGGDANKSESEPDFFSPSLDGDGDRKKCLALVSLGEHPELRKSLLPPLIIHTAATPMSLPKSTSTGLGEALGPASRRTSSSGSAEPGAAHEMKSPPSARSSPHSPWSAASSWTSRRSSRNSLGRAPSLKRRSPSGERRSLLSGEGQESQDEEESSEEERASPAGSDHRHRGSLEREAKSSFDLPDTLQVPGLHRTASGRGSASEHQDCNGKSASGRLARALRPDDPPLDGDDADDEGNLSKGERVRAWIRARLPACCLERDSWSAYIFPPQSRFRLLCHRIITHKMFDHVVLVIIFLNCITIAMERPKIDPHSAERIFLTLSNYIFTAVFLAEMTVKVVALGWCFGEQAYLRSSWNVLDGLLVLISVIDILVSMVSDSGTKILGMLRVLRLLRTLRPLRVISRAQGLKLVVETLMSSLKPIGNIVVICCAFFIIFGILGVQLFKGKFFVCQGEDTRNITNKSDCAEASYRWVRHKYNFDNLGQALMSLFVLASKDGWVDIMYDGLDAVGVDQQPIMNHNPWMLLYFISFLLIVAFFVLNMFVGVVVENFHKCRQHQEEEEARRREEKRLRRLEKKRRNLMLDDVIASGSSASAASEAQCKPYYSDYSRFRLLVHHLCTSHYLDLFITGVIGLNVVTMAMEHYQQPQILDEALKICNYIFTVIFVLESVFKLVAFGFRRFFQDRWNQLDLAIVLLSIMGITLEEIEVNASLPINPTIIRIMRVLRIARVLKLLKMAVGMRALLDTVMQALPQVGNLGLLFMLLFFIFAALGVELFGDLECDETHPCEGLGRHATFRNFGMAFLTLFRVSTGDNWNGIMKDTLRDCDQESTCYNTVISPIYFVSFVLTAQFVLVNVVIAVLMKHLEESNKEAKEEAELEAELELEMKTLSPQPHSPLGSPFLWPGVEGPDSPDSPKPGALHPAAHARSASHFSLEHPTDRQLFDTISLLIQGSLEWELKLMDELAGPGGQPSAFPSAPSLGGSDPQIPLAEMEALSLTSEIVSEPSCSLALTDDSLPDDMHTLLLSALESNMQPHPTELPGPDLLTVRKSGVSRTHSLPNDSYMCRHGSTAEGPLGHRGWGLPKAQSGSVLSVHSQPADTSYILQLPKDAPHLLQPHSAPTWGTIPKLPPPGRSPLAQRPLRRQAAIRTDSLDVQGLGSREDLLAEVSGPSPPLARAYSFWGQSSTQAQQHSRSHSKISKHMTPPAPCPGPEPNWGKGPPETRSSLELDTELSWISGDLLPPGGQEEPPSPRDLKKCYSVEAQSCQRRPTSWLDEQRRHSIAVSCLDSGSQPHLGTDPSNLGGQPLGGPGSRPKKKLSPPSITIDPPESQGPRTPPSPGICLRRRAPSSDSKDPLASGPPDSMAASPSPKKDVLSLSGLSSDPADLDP

Row | Compound | inhibition at 10 µM [1] [%] | other results
1 | O=C(CCn1ccnc1-c1ccccc1)NCCN1CCN(C(c2ccccc2)c2ccccc2)CC1 | 60.8 | IC50 [2]: 18 ± 0.92 µM; inhibition at 100 µM [3]: 29.1 ± 1.7%
2 | 1-N-[4-(4-chlorophenyl)(phenyl)methylpiperazin-1-yl]carbonylethyl-2-methylimidazole [Compound No. 46] |  | FDSS (%, 10 μM) [1]: 51.94%; IC50 [2]: 4.97 ± 0.18 µM; HEK293 (%, 100 μM) [3]: 67.6 ± 1.3%
3 | 1-N-{2-[4-(2,3-dimethylphenyl)(phenyl)methylpiperazin-1-yl]ethyl}carbamoylethyl-4-phenylimidazole [Compound No. 56] |  | FDSS (%, 10 μM) [1]: 35.38%
4 | 1-N-{2-[4-(4-chlorophenyl) (phenyl)methylpiperazin-1-yl]ethyl}carbamoylethyl-2-methylimidazole [Compound No. 93] |  | FDSS (%, 10 μM) [1]: 43.04%; IC50 [2]: 9.55 ± 8.7 µM
5 | 1-N-{2-[4-(4-chlorophenyl) (phenyl)methylpiperazin-1-yl]ethyl}carbamoylethyl-4-methylimidazole [Compound No. 94] |  | FDSS (%, 10 μM) [1]: 55.99%; IC50 [2]: 6.77 ± 1.45 µM
6 | O=C(CCn1cnc(-c2ccccc2)c1)N1CCN(Cc2ccccc2)CC1 [Compound No. 2, 1-N-(4-benzylpiperazin-1-yl)carbonylethyl-4-phenylimidazole] | 33.5 | 
7 | Cc1cccc(N2CCN(C(=O)CCn3ccnc3-c3ccccc3)CC2)c1C [Compound No. 15, 1-N-[4-(2,3-dimethylphenyl)piperazin-1-yl]carbonylethyl-2-phenylimidazole] | 34.4 | 
8 | Cc1ccc(N2CCN(C(=O)CCn3ccnc3-c3ccccc3)CC2)c(C)c1 [Compound No. 16, 1-N-[4-(2,4-dimethylphenyl)piperazin-1-yl]carbonylethyl-2-phenylimidazole] | 34.3 | 
9 | O=C(CCn1ccnc1-c1ccccc1)N1CCN(Cc2ccc(F)cc2)CC1 [Compound No. 21, 1-N-[4-(4-fluorobenzyl)piperazin-1-yl]carbonylethyl-2-phenylimidazole] | 36.8 | 
10 | CCN1CCN(C(=O)CCn2ccnc2-c2ccccc2)CC1 [Compound No. 23, 1-N-(4-ethylpiperazin-1-yl)carbonylethyl-2-phenylimidazole] | 23.4 | 
11 | O=C(CCn1ccnc1-c1ccccc1)N1CCN(c2cccc(Cl)c2)CC1 [Compound No. 26, 1-N-[4-(3-chlorophenyl)piperazin-1-yl]carbonylethyl-2-phenylimidazole] | 35.1 | 
12 | COc1ccc(N2CCN(C(=O)CCn3cnc(-c4ccccc4)c3)CC2)cc1 [Compound No. 27, 1-N-[4-(4-methoxyphenyl)piperazin-1-yl]carbonylethyl-4-phenylimidazole] | 37.8 | 
13 | Cc1nccn1CCC(=O)N1CCN(C(c2ccccc2)c2ccccc2)CC1 [Compound No. 35, 1-N-(4-diphenylmethylpiperazin-1-yl)carbonylethyl-2-methylimidazole] | 35 | 
14 | Cc1ccc(N2CCN(C(=O)CCn3cnc(C)c3)CC2)c(C)c1 [Compound No. 38, 1-N-[4-(2,4-dimethylphenyl)piperazin-1-yl]carbonylethyl-4-methylimidazole] | 33.8 | 
15 | O=C(CCn1cnc(-c2ccccc2)c1)N1CCN(c2ccccc2)CC1 [Compound No. 53, 1-N-(4-phenylpiperazin-1-yl)carbonylethyl-4-phenylimidazole] | 42.2 | IC50 [2]: 0.00046 µM
16 | O=C(CCn1ccnc1-c1ccccc1)N1CCN(c2ccccc2)CC1 [Compound No. 54, 1-N-(4-phenylpiperazin-1-yl)carbonylethyl-2-phenylimidazole] | 24.2 | 
17 | Cc1ccc(N2CCN(CCNC(=O)CCn3cnc(-c4ccccc4)c3)CC2)c(C)c1 [Compound No. 61, 1-N-{2-[4-(2,4-dimethylphenyl)piperazin-1-yl]ethyl}carbamoylethyl-4-phenylimidazole] | 44.9 | 
18 | Cc1ccc(N2CCN(CCNC(=O)CCn3ccnc3-c3ccccc3)CC2)c(C)c1 [Compound No. 62, 1-N-{2-[4-(2,4-dimethylphenyl)piperazin-1-yl]ethyl}carbamoylethyl-2-phenylimidazole] | 40.5 | 
19 | Cc1cccc(CN2CCN(CCNC(=O)CCn3cnc(-c4ccccc4)c3)CC2)c1 [Compound No. 67, 1-N-{2-[4-(3-methylbenzyl)piperazin-1-yl]ethyl}carbamoylethyl-4-phenylimidazole] | 39.2 | 
20 | Cc1cccc(CN2CCN(CCNC(=O)CCn3ccnc3-c3ccccc3)CC2)c1 [Compound No. 68, 1-N-{2-[4-(3-methylbenzyl)piperazin-1-yl]ethyl}carbamoylethyl-2-phenylimidazole] | 31.1 | 
21 | O=C(CCn1cnc(-c2ccccc2)c1)NCCN1CCN(Cc2ccc(F)cc2)CC1 [Compound No. 70, 1-N-{2-[4-(4-fluorobenzyl)piperazin-1-yl]ethyl}carbamoylethyl-4-phenylimidazole] | 36.7 | 
22 | O=C(CCn1cnc(-c2ccccc2)c1)NCCN1CCN(c2ccccc2)CC1 [Compound No. 71, 1-N-[2-(4-phenylpiperazin-1-yl)ethyl]carbamoylethyl-4-phenylimidazole] | 30.7 | 
23 | O=C(CCn1cnc(-c2ccccc2)c1)NCCN1CCN(c2ccc(F)cc2)CC1 [Compound No. 73, 1-N-{2-[4-(4-fluorophenyl)piperazin-1-yl]ethyl}carbamoylethyl-4-phenylimidazole] | 41.7 | 
24 | COc1ccc(N2CCN(CCNC(=O)CCn3cnc(-c4ccccc4)c3)CC2)cc1 [Compound No. 75, 1-N-{2-[4-(4-methoxyphenyl)piperazin-1-yl]ethyl}carbamoylethyl-4-phenylimidazole] | 33 | 
25 | O=C(CCn1cnc(-c2ccccc2)c1)NCCN1CCN(c2cccc(Cl)c2)CC1 [Compound No. 79, 1-N-{2-[4-(3-chlorophenyl)piperazin-1-yl]ethyl}carbamoylethyl-4-phenylimidazole] | 36.9 | 
26 | Cc1nccn1CCC(=O)NCCN1CCN(C(c2ccccc2)c2ccccc2)CC1 [Compound No. 96, 1-N-[2-(4-diphenylmethylpiperazin-1-yl)ethyl]carbamoylethyl-2-methylimidazole] | 41.4 | IC50 [2]: 0.39 ± 0.28 µM
27 | COc1ccc(CN2CCN(CCNC(=O)CCn3ccnc3C)CC2)cc1 [Compound No. 98, 1-N-{2-[4-(4-methoxybenzyl)piperazin-1-yl]ethyl}carbamoylethyl-2-methylimidazole] | 33.8 | 
